Measured values as given in patent US8710065B2, “Tricyclic inhibitors of kinases” (AbbVie Inc., priority 2011, dated 2014).

What follows are compounds tested against T1, GST-tagged-Wee1 kinase (Homo sapiens, UniProt P30291) (assay: Wee1 time-resolved fluorescence equilibrium binding assay (displacement of Oregon Green-labeled ATP-competitive kinase probe)). Conditions: read-out: Wee-1 inhibition (Ki).
T1 construct: purchased Carnabio (Carna Biosciences) 05-177
Method in brief: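 Time-resolved fluorescence equilibrium binding with GST-Wee1, measuring displacement of a rapidly reversible Oregon Green-labelled ATP-competitive probe by competitive inhibitors; values reported as Ki.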

T1 sequence (P30291 whole entry): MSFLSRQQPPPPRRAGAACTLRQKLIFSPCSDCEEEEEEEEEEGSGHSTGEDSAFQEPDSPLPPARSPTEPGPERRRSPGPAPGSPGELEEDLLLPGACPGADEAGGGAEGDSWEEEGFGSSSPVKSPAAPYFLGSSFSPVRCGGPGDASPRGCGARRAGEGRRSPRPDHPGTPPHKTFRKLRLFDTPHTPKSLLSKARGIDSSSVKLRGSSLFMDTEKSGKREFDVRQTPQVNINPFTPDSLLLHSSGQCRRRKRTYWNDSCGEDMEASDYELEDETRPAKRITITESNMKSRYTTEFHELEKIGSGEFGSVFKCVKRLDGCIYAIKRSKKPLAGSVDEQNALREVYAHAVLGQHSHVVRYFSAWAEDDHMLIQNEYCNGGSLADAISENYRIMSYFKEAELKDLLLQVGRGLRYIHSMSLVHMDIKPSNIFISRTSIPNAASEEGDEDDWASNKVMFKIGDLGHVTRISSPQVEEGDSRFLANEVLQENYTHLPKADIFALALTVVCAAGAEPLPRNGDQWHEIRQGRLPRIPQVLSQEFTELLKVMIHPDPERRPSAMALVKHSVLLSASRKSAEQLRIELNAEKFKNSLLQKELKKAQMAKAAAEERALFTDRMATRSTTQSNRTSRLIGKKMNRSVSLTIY

Compound	Ki
CN1CCN(c2ccc(Nc3ncc4c(=O)n(-c5c(F)cccc5F)c5nccn5c4n3)cc2)CC1 [Example 98, 6-(2,6-difluorophenyl)-2-{[4-(4-methylpiperazin-1-yl)phenyl]amino}imidazo[1,2-a]pyrimido[5,4-e]pyrimidin-5(6H)-one]	10 to 100 nM
CC1(C)CN(CC2CCCCC2)Cc2cc(Nc3ncc4c(=O)n(-c5ccccc5Cl)c5nccn5c4n3)ccc21 [Example 113, 6-(2-chlorophenyl)-2-{[2-(cyclohexylmethyl)-4,4-dimethyl-1,2,3,4-tetrahydroisoquinolin-7-yl]amino}imidazo[1,2-a]pyrimido[5,4-e]pyrimidin-5(6H)-one]	< 10 nM
CN(C)C1Cc2ccc(Nc3ncc4c(=O)n(-c5c(Cl)cccc5Cl)c5nccn5c4n3)cc2C1 (stereo not drawn) [Example 114, 6-(2,6-dichlorophenyl)-2-{[2-(dimethylamino)-2,3-dihydro-1H-inden-5-yl]amino}imidazo[1,2-a]pyrimido[5,4-e]pyrimidin-5(6H)-one]	< 10 nM
CC(C)N1CCN(c2ccc(Nc3ncc4c(=O)n(-c5c(Cl)cccc5Cl)c5nccn5c4n3)cc2)CC1 [Example 115, 6-(2,6-dichlorophenyl)-2-({4-[4-(propan-2-yl)piperazin-1-yl]phenyl}amino)imidazo[1,2-a]pyrimido[5,4-e]pyrimidin-5(6H)-one]	< 10 nM
O=c1c2cnc(Nc3ccc(N4CCN5CCCC5C4)cc3)nc2n2ccnc2n1-c1c(Cl)cccc1Cl (stereo not drawn) [Example 116, 6-(2,6-dichlorophenyl)-2-{[4-(hexahydropyrrolo[1,2-a]pyrazin-2(1H)-yl)phenyl]amino}imidazo[1,2-a]pyrimido[5,4-e]pyrimidin-5(6H)-one]	< 10 nM
CCC(CC)CN1Cc2cc(Nc3ncc4c(=O)n(-c5ccccc5Cl)c5nccn5c4n3)ccc2C(C)(C)C1 [Example 117, 6-(2-chlorophenyl)-2-{[2-(2-ethylbutyl)-4,4-dimethyl-1,2,3,4-tetrahydroisoquinolin-7-yl]amino}imidazo[1,2-a]pyrimido[5,4-e]pyrimidin-5(6H)-one]	10 to 100 nM
CN1CCN(CCc2ccc(Nc3ncc4c(=O)n(-c5c(Cl)cccc5Cl)c5nccn5c4n3)cc2)CC1 [Example 118, 6-(2,6-dichlorophenyl)-2-({4-[2-(4-methylpiperazin-1-yl)ethyl]phenyl}amino)imidazo[1,2-a]pyrimido[5,4-e]pyrimidin-5(6H)-one]	< 10 nM
CN(C)CCN1CCc2cc(Nc3ncc4c(=O)n(-c5c(Cl)cccc5Cl)c5nccn5c4n3)ccc21 [Example 119, 6-(2,6-dichlorophenyl)-2-({1-[2-(dimethylamino)ethyl]-2,3-dihydro-1H-indol-5-yl}amino)imidazo[1,2-a]pyrimido[5,4-e]pyrimidin-5(6H)-one]	< 10 nM
CCc1cc(Nc2ncc3c(=O)n(-c4c(Cl)cccc4Cl)c4nccn4c3n2)ccc1N1CCN(C)CC1 [Example 120, 6-(2,6-dichlorophenyl)-2-{[3-ethyl-4-(4-methylpiperazin-1-yl)phenyl]amino}imidazo[1,2-a]pyrimido[5,4-e]pyrimidin-5(6H)-one]	< 10 nM
CN1CCCN(c2ccc(Nc3ncc4c(=O)n(-c5c(Cl)cccc5Cl)c5nccn5c4n3)cc2CO)CC1 [Example 121, 6-(2,6-dichlorophenyl)-2-{[3-(hydroxymethyl)-4-(4-methyl-1,4-diazepan-1-yl)phenyl]amino}imidazo[1,2-a]pyrimido[5,4-e]pyrimidin-5(6H)-one]	< 10 nM
O=c1c2cnc(Nc3ccc4c(c3)CCNC4)nc2n2ccnc2n1-c1c(Cl)cccc1Cl [Example 122, 6-(2,6-dichlorophenyl)-2-(1,2,3,4-tetrahydroisoquinolin-6-ylamino)imidazo[1,2-a]pyrimido[5,4-e]pyrimidin-5(6H)-one]	< 10 nM
CN1CCN(c2ccc(Nc3ncc4c(=O)n(-c5c(Cl)cc(F)cc5Cl)c5nccn5c4n3)cc2)CC1 [Example 123, 6-(2,6-dichloro-4-fluorophenyl)-2-{[4-(4-methylpiperazin-1-yl)phenyl]amino}imidazo[1,2-a]pyrimido[5,4-e]pyrimidin-5(6H)-one]	< 10 nM
Cc1cc(Nc2ncc3c(=O)n(-c4c(Cl)cc(F)cc4Cl)c4nccn4c3n2)ccc1N1CCCN(C)CC1 [Example 124, 6-(2,6-dichloro-4-fluorophenyl)-2-{[3-methyl-4-(4-methyl-1,4-diazepan-1-yl)phenyl]amino}imidazo[1,2-a]pyrimido[5,4-e]pyrimidin-5(6H)-one]	< 10 nM
CN1Cc2cc(Nc3ncc4c(=O)n(-c5c(Cl)cc(F)cc5Cl)c5nccn5c4n3)ccc2C2(CC2)C1 [Example 125, 6-(2,6-dichloro-4-fluorophenyl)-2-[(2′-methyl-2′,3′-dihydro-1′H-spiro[cyclopropane-1,4′-isoquinolin]-7′-yl)amino]imidazo[1,2-a]pyrimido[5,4-e]pyrimidin-5(6H)-one]	< 10 nM
CN(C)C1Cc2ccc(Nc3ncc4c(=O)n(-c5c(Cl)cc(F)cc5Cl)c5nccn5c4n3)cc2C1 (stereo not drawn) [Example 126, 6-(2,6-dichloro-4-fluorophenyl)-2-{[2-(dimethylamino)-2,3-dihydro-1H-inden-5-yl]amino}imidazo[1,2-a]pyrimido[5,4-e]pyrimidin-5(6H)-one]	< 10 nM

Now from value to compound:

Ki	Compound
< 10 nM	CN1Cc2cc(Nc3ncc4c(=O)n(-c5c(F)cccc5Cl)c5nccn5c4n3)ccc2C(C)(C)C1 [Example 97, 6-(2-chloro-6-fluorophenyl)-2-[(2,4,4-trimethyl-1,2,3,4-tetrahydroisoquinolin-7-yl)amino]imidazo[1,2-a]pyrimido[5,4-e]pyrimidin-5(6H)-one]
< 10 nM	O=c1c2cnc(Nc3ccc4c(c3)CN(CCO)CC4)nc2n2ccnc2n1-c1ccccc1Cl [Example 99, 6-(2-chlorophenyl)-2-{[2-(2-hydroxyethyl)-1,2,3,4-tetrahydroisoquinolin-7-yl]amino}imidazo[1,2-a]pyrimido[5,4-e]pyrimidin-5(6H)-one]
< 10 nM	CN1CCCN(c2ccc(Nc3ncc4c(=O)n(-c5ccccc5Cl)c5nccn5c4n3)cc2CO)CC1 [Example 100, 6-(2-chlorophenyl)-2-{[3-(hydroxymethyl)-4-(4-methyl-1,4-diazepan-1-yl)phenyl]amino}imidazo[1,2-a]pyrimido[5,4-e]pyrimidin-5(6H)-one]
< 10 nM	O=c1c2cnc(Nc3ccc(N4CCN5CCCC5C4)cc3)nc2n2ccnc2n1-c1ccccc1Cl (stereo not drawn) [Example 101, 6-(2-chlorophenyl)-2-{[4-(hexahydropyrrolo[1,2-a]pyrazin-2(1H)-yl)phenyl]amino}imidazo[1,2-a]pyrimido[5,4-e]pyrimidin-5(6H)-one]
< 10 nM	Cc1cc(Nc2ncc3c(=O)n(-c4ccccc4Cl)c4nccn4c3n2)ccc1O [Example 102, 6-(2-chlorophenyl)-2-[(4-hydroxy-3-methylphenyl)amino]imidazo[1,2-a]pyrimido[5,4-e]pyrimidin-5(6H)-one]
< 10 nM	CCN(CC)CCCOc1ccc(Nc2ncc3c(=O)n(-c4ccccc4Cl)c4nccn4c3n2)cc1C [Example 103, 6-(2-chlorophenyl)-2-({4-[3-(diethylamino)propoxy]-3-methylphenyl}amino)imidazo[1,2-a]pyrimido[5,4-e]pyrimidin-5(6H)-one]
< 10 nM	Cc1cc(Nc2ncc3c(=O)n(-c4ccccc4Cl)c4nccn4c3n2)ccc1N1CCNCC1 [Example 104, 6-(2-chlorophenyl)-2-{[3-methyl-4-(piperazin-1-yl)phenyl]amino}imidazo[1,2-a]pyrimido[5,4-e]pyrimidin-5(6H)-one]
< 10 nM	Cc1cc(Nc2ncc3c(=O)n(-c4ccccc4Cl)c4nccn4c3n2)ccc1N1CCCNCC1 [Example 105, 6-(2-chlorophenyl)-2-{[4-(1,4-diazepan-1-yl)-3-methylphenyl]amino}imidazo[1,2-a]pyrimido[5,4-e]pyrimidin-5(6H)-one]
< 10 nM	O=c1c2cnc(Nc3ccc4c(c3)CCCNC4)nc2n2ccnc2n1-c1ccccc1Cl [Example 106, 6-(2-chlorophenyl)-2-(2,3,4,5-tetrahydro-1H-2-benzazepin-7-ylamino)imidazo[1,2-a]pyrimido[5,4-e]pyrimidin-5(6H)-one]
< 10 nM	CN1CCc2ccc(Nc3ncc4c(=O)n(-c5ccccc5Cl)c5nccn5c4n3)cc2CC1 [Example 107, 6-(2-chlorophenyl)-2-[(3-methyl-2,3,4,5-tetrahydro-1H-3-benzazepin-7-yl)amino]imidazo[1,2-a]pyrimido[5,4-e]pyrimidin-5(6H)-one]
< 10 nM	CN1CCc2ccc(Nc3ncc4c(=O)n(-c5ccccc5Cl)c5nccn5c4n3)cc2C1(C)C [Example 108, 6-(2-chlorophenyl)-2-[(1,1,2-trimethyl-1,2,3,4-tetrahydroisoquinolin-7-yl)amino]imidazo[1,2-a]pyrimido[5,4-e]pyrimidin-5(6H)-one]
< 10 nM	O=c1c2cnc(Nc3ccc4c(c3)CNCC43CC3)nc2n2ccnc2n1-c1c(Cl)cccc1Cl [Example 109, 6-(2,6-dichlorophenyl)-2-(2′,3′-dihydro-1′H-spiro[cyclopropane-1,4′-isoquinolin]-7′-ylamino)imidazo[1,2-a]pyrimido[5,4-e]pyrimidin-5(6H)-one]
< 10 nM	Cc1cc(Nc2ncc3c(=O)n(-c4c(Cl)cccc4Cl)c4nccn4c3n2)ccc1N1CCNCC1 [Example 110, 6-(2,6-dichlorophenyl)-2-{[3-methyl-4-(piperazin-1-yl)phenyl]amino}imidazo[1,2-a]pyrimido[5,4-e]pyrimidin-5(6H)-one]
< 10 nM	O=c1c2cnc(Nc3ccc4c(c3)CNCC4)nc2n2ccnc2n1-c1c(Cl)cccc1Cl [Example 111, 6-(2,6-dichlorophenyl)-2-(1,2,3,4-tetrahydroisoquinolin-7-ylamino)imidazo[1,2-a]pyrimido[5,4-e]pyrimidin-5(6H)-one]
< 10 nM	CCc1cc(Nc2ncc3c(=O)n(-c4ccccc4Cl)c4nccn4c3n2)ccc1N1CCN(C)CC1 [Example 112, 6-(2-chlorophenyl)-2-{[3-ethyl-4-(4-methylpiperazin-1-yl)phenyl]amino}imidazo[1,2-a]pyrimido[5,4-e]pyrimidin-5(6H)-one]
